From US20250101019A1 (Insilico Medicine IP Limited, priority 2022, published 2025)

What was measured:
[1] = molecular target: T1, ENPP1 (Homo sapiens (Human), UniProt P22413); test: cGAMP-Glo enzymatic assay (2′3′-cGAMP substrate, AMP-Glo readout); assay type: biochemical; conditions: substrate 2′3′-cGAMP; 25° C. for 60 min; 50 mM Tris pH 8.8
Description: (§1) Example A: Enzymatic Assay
(§2) • 1. Diluted compounds in DMSO by hand for 11 points, 3 folds dilution. Then transferred 0.02 μL compounds to 384 assay plate by ECHO. • 2. Added 2 μL specified concentration of ENPP1 to 384 assay plate. Centrifuged 1000 RPM for 1 min. • 3. Added 2 μL specified concentration of ATP to the assay plate. Centrifuged 1000 RPM for 1 min. • 4. Incubated at 25° C. for 60 min. • 5. Added 4 μL AMP-Glo Reagent to the assay plates. • 6. Centrifuged 1000 RPM for 1 min, incubate at 25° C. for 1 hours. • 7. Added 8 μL Kinase Detection Reagent to the assay plates. • 8. Centrifuged 1000 RPM for 1 min, incubated at 25° C. for 1 hours. The final assay reaction mixture contained a buffer of 50 mM Tris pH 8.8, 250 mM NaCl and 0.1% BSA • 9. Read on Envision for US LUM as RLU. • 10. Analyzed the raw data using the equation (V. Data analysis). cGAMP-Glo Assay: • 1. Diluted compounds in DMSO by hand for 11 points, 3 folds dilution. Then transferred 0.02 μL compounds to 384 assay plate by ECHO. • 2. Added 2 μL specified concentration of ENPP1 to 384 assay plate, centrifuged 1000 RPM for 1 min. • 3. Added 2 μL specified concentration of 2′3′-cGAMP to the assay plate, centrifuged 1000 RPM for 1 min. • 4. Incubated at 25° C. for 60 min. • 5. Added 4 μL AMP-Glo Reagent to the assay plates. • 6. Centrifuged 1000 RPM for 1 min, incubated at 25° C. for 1 hours. • 7. Added 8 μL Kinase Detection Reagent to the assay plates. • 8. Centrifuged 1000 RPM for 1 min, incubate at 25° C. for 1 hours. The final assay reaction mixture contained a buffer of 50 mM Tris pH 8.8, 250 mM NaCl and 0.1% BSA • 9. Read on Envision for US LUM as RLU. • 10. Analyzed the raw data using the equation (V. Data analysis).

[2] = molecular target: T1, ENPP1; test: ATP-Glo enzymatic assay (ATP substrate, AMP-Glo readout); assay type: biochemical; conditions: 25° C. for 60 min, 50 mM Tris pH 8.8
Description: as §1, §2

T1 sequence (P22413 whole entry, species assumed): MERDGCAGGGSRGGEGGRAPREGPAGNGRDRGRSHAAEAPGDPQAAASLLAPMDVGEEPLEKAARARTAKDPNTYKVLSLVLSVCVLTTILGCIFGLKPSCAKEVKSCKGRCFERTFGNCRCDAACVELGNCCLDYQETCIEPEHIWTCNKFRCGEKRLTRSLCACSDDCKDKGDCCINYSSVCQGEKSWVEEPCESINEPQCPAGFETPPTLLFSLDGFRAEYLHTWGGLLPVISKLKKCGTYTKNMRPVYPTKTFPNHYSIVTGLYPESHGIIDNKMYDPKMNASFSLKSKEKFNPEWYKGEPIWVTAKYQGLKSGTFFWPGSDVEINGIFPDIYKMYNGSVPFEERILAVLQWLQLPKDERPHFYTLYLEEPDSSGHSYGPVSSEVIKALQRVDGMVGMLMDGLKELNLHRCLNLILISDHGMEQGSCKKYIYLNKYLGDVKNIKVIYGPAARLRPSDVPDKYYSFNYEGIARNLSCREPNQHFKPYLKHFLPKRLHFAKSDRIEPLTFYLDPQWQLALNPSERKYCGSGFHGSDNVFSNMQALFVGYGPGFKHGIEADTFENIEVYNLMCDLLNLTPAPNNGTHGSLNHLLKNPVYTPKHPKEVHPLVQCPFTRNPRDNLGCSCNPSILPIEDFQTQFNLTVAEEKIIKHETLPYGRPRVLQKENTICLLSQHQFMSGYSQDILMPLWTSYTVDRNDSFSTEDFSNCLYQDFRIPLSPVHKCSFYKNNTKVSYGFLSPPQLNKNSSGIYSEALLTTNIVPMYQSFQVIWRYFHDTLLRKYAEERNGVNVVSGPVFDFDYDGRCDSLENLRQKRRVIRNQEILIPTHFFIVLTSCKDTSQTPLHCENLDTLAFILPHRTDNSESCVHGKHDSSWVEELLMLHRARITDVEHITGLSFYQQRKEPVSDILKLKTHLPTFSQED

Row | Compound | IC50 [1] | IC50 [2]
1 | 4-((6-cyano-2-methyl-7-phenyl-1H-imidazo[4,5-c]pyridin-1-yl)methyl)benzenesulfonamide [Example 41] | < 1 nM | < 1 nM
2 | COc1ncc2c(C)cn(Cc3ccc(NS(N)(=O)=O)cc3)c2c1-c1ccn(C)n1 [Example 1, N-(4-((6-methoxy-3-methyl-7-(1-methyl-1H-pyrazol-3-yl)-1H-pyrrolo[3,2-c]pyridin-1-yl)methyl)phenyl) sulfamide] | 10 to 100 nM | 100 to 1000 nM
3 | Cc1ncc2ccn(Cc3ccc(NS(N)(=O)=O)cc3)c2c1-c1ccn(C)n1 [Example 2, N-(4-((6-methyl-7-(1-methyl-1H-pyrazol-3-yl)-1H-pyrrolo[3,2-c]pyridin-1-yl)methyl)phenyl) sulfamide] | 100 to 1000 nM | > 1000 nM
4 | COc1ncc2ccn(Cc3ccc(NS(N)(=O)=O)cc3)c2c1-c1ccn(C)n1 [Example 3, N-(4-((6-methoxy-7-(1-methyl-1H-pyrazol-3-yl)-1H-pyrrolo[3,2-c]pyridin-1-yl)methyl)phenyl) sulfamide] | 100 to 1000 nM | > 1000 nM
5 | COc1ncc2ccn(Cc3ccc(S(N)(=O)=O)cc3)c2c1-c1ccn(C)n1 [Example 5, 4-((6-methoxy-7-(1-methyl-1H-pyrazol-3-yl)-1H-pyrrolo[3,2-c]pyridin-1-yl)methyl)benzenesulfonamide] | 1 to 10 nM | 10 to 100 nM
6 | COc1ncc2c(C)cn(Cc3ccc(S(N)(=O)=O)cc3)c2c1-c1ccn(C)n1 [Example 6, 4-((6-methoxy-3-methyl-7-(1-methyl-1H-pyrazol-3-yl)-1H-pyrrolo[3,2-c]pyridin-1-yl)methyl)benzenesulfonamide] | 1 to 10 nM | 1 to 10 nM
7 | COc1ncc2ccn(Cc3c(F)cc(S(N)(=O)=O)cc3F)c2c1-c1ccn(C)n1 [Example 7, 3,5-difluoro-4-((6-methoxy-7-(1-methyl-1H-pyrazol-3-yl)-1H-pyrrolo[3,2-c]pyridin-1-yl)methyl)benzenesulfonamide] | 1 to 10 nM | 1 to 10 nM
8 | COc1ncc2ccn(Cc3ccc(S(N)(=O)=O)cc3)c2c1-n1ccc(C)n1 [Example 8, 4-((6-methoxy-7-(3-methyl-1H-pyrazol-1-yl)-1H-pyrrolo[3,2-c]pyridin-1-yl)methyl)benzenesulfonamide] | 10 to 100 nM | 10 to 100 nM
9 | COc1ncc2ccn(Cc3ccc(S(N)(=O)=O)cc3)c2c1-c1cnn(C(F)(F)F)c1 [Example 11, 4-((6-methoxy-7-(1-(trifluoromethyl)-1H-pyrazol-4-yl)-1H-pyrrolo[3,2-c]pyridin-1-yl)methyl)benzenesulfonamide] | 100 to 1000 nM | 100 to 1000 nM
10 | COc1ncc2c(C)cn(Cc3ccc(S(N)(=O)=O)cc3)c2c1-c1ccc(F)cc1 [Example 12] | 10 to 100 nM | 10 to 100 nM
11 | COc1ncc2c(C)cn(Cc3ccc(S(N)(=O)=O)cc3)c2c1-c1ccccn1 [Example 13, 4-((6-methoxy-3-methyl-7-(pyridin-2-yl)-1H-pyrrolo[3,2-c]pyridin-1-yl)methyl)benzenesulfonamide] | 1 to 10 nM | 1 to 10 nM
12 | Cc1ncc2c(C)cn(Cc3c(F)cc(S(N)(=O)=O)cc3F)c2c1-c1ccn(C)n1 [Example 17, 4-((3,6-dimethyl-7-(1-methyl-1H-pyrazol-3-yl)-1H-pyrrolo[3,2-c]pyridin-1-yl)methyl)-3,5-difluorobenzenesulfonamide] | 1 to 10 nM | 1 to 10 nM
13 | Cc1ncc2c(C)cn(Cc3c(F)cc(S(N)(=O)=O)cc3F)c2c1-c1ccn(C(F)(F)F)n1 [Example 18, 4-((3,6-dimethyl-7-(1-(trifluoromethyl)-1H-pyrazol-3-yl)-1H-pyrrolo[3,2-c]pyridin-1-yl)methyl)-3,5-difluorobenzenesulfonamide] | 10 to 100 nM | 100 to 1000 nM
14 | COc1ncc2cnn(Cc3ccc(S(N)(=O)=O)cc3)c2c1-c1ccccc1 [Example 21, 4-((6-methoxy-7-phenyl-1H-pyrazolo[4,3-c]pyridin-1-yl)methyl)benzenesulfonamide] | 1 to 10 nM | 10 to 100 nM
15 | Cc1ccccc1-c1c(C)ncc2ncn(Cc3c(F)cc(S(N)(=O)=O)cc3F)c12 [Example 28, 3,5-difluoro-4-((6-methyl-7-(o-tolyl)-1H-imidazo[4,5-c]pyridin-1-yl)methyl)benzene sulfonamide] | 10 to 100 nM | 10 to 100 nM

The remaining lines, values ahead:

Row | IC50 [1] | IC50 [2] | Compound
16 | < 1 nM | 1 to 10 nM | COc1ncc2c(C)cn(Cc3c(F)cc(S(N)(=O)=O)cc3F)c2c1-c1ccn(C)n1 [Example 4, 3,5-difluoro-4-((6-methoxy-3-methyl-7-(1-methyl-1H-pyrazol-3-yl)-1H-pyrrolo[3,2-c]pyridin-1-yl)methyl)benzene sulfonamide]
17 | < 1 nM | < 1 nM | COc1ncc2ccn(Cc3ccc(S(N)(=O)=O)cc3)c2c1-c1ccccc1 [Example 9, 4-((6-methoxy-7-phenyl-1H-pyrrolo[3,2-c]pyridin-1-yl)methyl)benzene sulfonamide]
18 | < 1 nM | < 1 nM | COc1ncc2c(C)cn(Cc3ccc(S(N)(=O)=O)cc3)c2c1-c1ccccc1 [Example 10, 4-((6-methoxy-3-methyl-7-phenyl-1H-pyrrolo[3,2-c]pyridin-1-yl)methyl)benzene sulfonamide]
19 | < 1 nM | < 1 nM | Cc1ncc2c(C)cn(Cc3c(F)cc(S(N)(=O)=O)cc3F)c2c1-c1ccccc1 [Example 14, 4-[(3,6-dimethyl-7-phenylpyrrolo[3,2-c]pyridin-1-yl)methyl]-3,5-difluorobenzene-1-sulfonamide]
20 | < 1 nM | < 1 nM | Cc1ncc2ccn(Cc3ccc(S(N)(=O)=O)cc3)c2c1-c1ccccc1 [Example 15, 4-((6-methyl-7-phenyl-1H-pyrrolo[3,2-c]pyridin-1-yl)methyl)benzene sulfonamide]
21 | < 1 nM | < 1 nM | Cc1ncc2c(C)cn(Cc3ccc(S(N)(=O)=O)cc3)c2c1-c1ccccc1 [Example 16, 4-((3,6-dimethyl-7-phenyl-1H-pyrrolo[3,2-c]pyridin-1-yl)methyl)benzene sulfonamide]
22 | < 1 nM | < 1 nM | COc1ncc2c(c1-c1ccccc1)n(Cc1ccc(S(N)(=O)=O)cc1)c(=O)n2C [Example 19, 4-[(6-methoxy-3-methyl-2-oxo-7-phenylimidazo[5,4-c]pyridin-1-yl)methyl]benzene-1-sulfonamide]
23 | < 1 nM | < 1 nM | Cc1ncc2c(c1-c1ccccc1)n(Cc1ccc(S(N)(=O)=O)cc1)c(=O)n2C [Example 20, 4-((3,6-dimethyl-2-oxo-7-phenyl-2,3-dihydro-1H-imidazo[4,5-c]pyridin-1-yl)methyl)benzenesulfonamide]
24 | < 1 nM | < 1 nM | COc1ncc2nc(C)n(Cc3ccc(S(N)(=O)=O)cc3)c2c1-c1ccccc1 [Example 22, 4-((6-methoxy-2-methyl-7-phenyl-1H-imidazo[4,5-c]pyridin-1-yl)methyl)benzenesulfonamide]
25 | < 1 nM | < 1 nM | COc1ncc2ncn(Cc3ccc(S(N)(=O)=O)cc3)c2c1-c1ccccc1 [Example 23, 4-((6-methoxy-7-phenyl-1H-imidazo[4,5-c]pyridin-1-yl)methyl)benzenesulfonamide]
26 | < 1 nM | < 1 nM | COc1ncc2nc(C)n(Cc3c(F)cc(S(N)(=O)=O)cc3F)c2c1-c1ccccc1 [Example 24, 3,5-difluoro-4-((6-methoxy-2-methyl-7-phenyl-1H-imidazo[4,5-c]pyridin-1-yl)methyl)benzenesulfonamide]
27 | < 1 nM | < 1 nM | COc1ncc2nc(C)n(Cc3ccc(S(N)(=O)=O)cc3F)c2c1-c1ccccc1 [Example 25]
28 | < 1 nM | < 1 nM | Cc1ncc2nc(C)n(Cc3c(F)cc(S(N)(=O)=O)cc3F)c2c1-c1ccccc1 [Example 26, 4-((2,6-dimethyl-7-phenyl-1H-imidazo[4,5-c]pyridin-1-yl)methyl)-3,5-difluorobenzenesulfonamide]
29 | < 1 nM | < 1 nM | Cc1ncc2ncn(Cc3c(F)cc(S(N)(=O)=O)cc3F)c2c1-c1ccccc1 [Example 27, 3,5-difluoro-4-((6-methyl-7-phenyl-1H-imidazo[4,5-c]pyridin-1-yl)methyl)benzene sulfonamide]
30 | < 1 nM | < 1 nM | Cc1ncc2ncn(Cc3ccc(S(N)(=O)=O)cc3)c2c1-c1ccccc1 [Example 29, 4-((6-methyl-7-phenyl-1H-imidazo[4,5-c]pyridin-1-yl)methyl)benzene sulfonamide]
31 | < 1 nM | < 1 nM | Cc1ncc(-c2ccccc2)c2c1ncn2Cc1ccc(S(N)(=O)=O)cc1 [Example 30, 4-((4-methyl-7-phenyl-1H-imidazo[4,5-c]pyridin-1-yl)methyl)benzene sulfonamide]
